Reference: patent US12723063B2, “GIPR-agonist compounds” (Eli Lilly and Company, priority 2019, dated 2026)
*1 amine or outer side, *2 acyl side, *3 side chain or, on linkers, in order; H or OH if unused. Where a SMILES comes first, the peptide text is derived from it. Side-chain parts run from the residue outwards. [ ]: non-standard residue; d: D form. The star is where a group is joined. C20 diacid = O=C(O)CCCCCCCCCCCCCCCCCCC(=O)*; C18 diacid = O=C(O)CCCCCCCCCCCCCCCCC(=O)*; αMePhe(2-F) = C[C@](N)(Cc1ccccc1F)C(=O)O; γGlu = O=C(O)[C@H](CCC(=O)[*:2])N[*:1]; 4Pal = N[C@@H](Cc1ccncc1)C(=O)O; αMeL = CC(C)C[C@](C)(N)C(=O)O; Orn = NCCC[C@H](N)C(=O)O; AEEA = NCCOCCOCC(=O)O; Aib = CC(C)(N)C(=O)O

How the values were obtained:
human GIPR = biological target: T1, human GIPR (Homo sapiens, UniProt P48546); test: [125I]-GIP binding, SPA with WGA beads, 0.1% bacitracin; details: geometric mean, read-out: hGIPR Ki
T1 construct: expressed in transfected cells; crude membranes
T1 sequence (P48546 22-466): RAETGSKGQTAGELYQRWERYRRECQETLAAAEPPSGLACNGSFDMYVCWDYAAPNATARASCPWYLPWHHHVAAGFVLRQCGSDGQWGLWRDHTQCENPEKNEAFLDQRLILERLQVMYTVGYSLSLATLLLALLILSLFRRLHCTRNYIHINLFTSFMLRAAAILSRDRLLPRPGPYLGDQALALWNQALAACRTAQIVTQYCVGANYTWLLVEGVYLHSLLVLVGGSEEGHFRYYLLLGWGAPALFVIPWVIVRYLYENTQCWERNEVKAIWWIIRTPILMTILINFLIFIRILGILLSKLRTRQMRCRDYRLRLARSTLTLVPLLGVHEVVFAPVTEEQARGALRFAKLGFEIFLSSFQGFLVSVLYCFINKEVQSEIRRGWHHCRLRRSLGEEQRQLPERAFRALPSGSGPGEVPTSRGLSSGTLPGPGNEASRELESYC
Method in brief: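 Ki values are geometric means (SEM, n independent days), derived from four-parameter nonlinear regression of IC50. Membranes came from hGIPR-expressing CHO cells.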

human GcgR = biological target: T2, human GcgR (Homo sapiens, UniProt P47871); test: [125I]-Glucagon binding, SPA with WGA beads, 0.1% bacitracin; details: geometric mean, read-out: hGcgR Ki
T2 construct: expressed in transfected cells; crude membranes
Method in brief: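 SPA competition binding with WGA beads on crude membranes from HEK293 cells stably expressing hGcgR. Buffer: 25 mM HEPES pH 7.4, 2.5 mM CaCl2, 1 mM MgCl2, 0.1% bacitracin, 0.003% Tween-20; 10-point 3-fold dilutions, NSB with 1 μM Gcg.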

T2 sequence (P47871 26-477): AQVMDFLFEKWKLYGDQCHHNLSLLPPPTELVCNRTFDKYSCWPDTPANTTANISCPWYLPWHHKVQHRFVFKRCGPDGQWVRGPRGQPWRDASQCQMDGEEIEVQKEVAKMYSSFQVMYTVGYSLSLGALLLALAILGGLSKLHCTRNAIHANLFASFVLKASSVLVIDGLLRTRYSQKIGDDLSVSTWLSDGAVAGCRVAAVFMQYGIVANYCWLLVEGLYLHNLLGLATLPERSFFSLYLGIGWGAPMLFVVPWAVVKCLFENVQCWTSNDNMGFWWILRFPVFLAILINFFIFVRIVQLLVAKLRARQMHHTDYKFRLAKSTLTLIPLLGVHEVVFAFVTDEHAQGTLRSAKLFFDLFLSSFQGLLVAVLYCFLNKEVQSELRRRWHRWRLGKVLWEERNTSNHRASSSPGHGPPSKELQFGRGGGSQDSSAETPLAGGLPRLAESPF

Row | Structure (SMILES) | Ki (human GIPR) [pM] | Ki (human GcgR) [pM]
1 | CC[C@H](C)[C@H](NC(=O)[C@H](CO)NC(=O)[C@H](Cc1ccc(O)cc1)NC(=O)[C@H](CC(=O)O)NC(=O)[C@H](CO)NC(=O)[C@@H](NC(=O)[C@](C)(Cc1ccccc1F)NC(=O)[C@@H](NC(=O)CNC(=O)[C@H](CCC(=O)O)NC(=O)C(C)(C)NC(=O)[C@@H](N)Cc1ccc(O)cc1)[C@@H](C)O)[C@@H](C)CC)C(=O)N[C@@H](C)C(=O)N[C@@H](CC(C)C)C(=O)N[C@@H](CC(=O)O)C(=O)N[C@@H](CCCCN)C(=O)N[C@H](C(=O)N[C@@H](Cc1c[nH]cn1)C(=O)N[C@@H](CCC(N)=O)C(=O)NC(C)(C)C(=O)N[C@@H](CC(=O)O)C(=O)N[C@@H](Cc1ccccc1)C(=O)N[C@H](C(=O)N[C@@H](CCC(=O)O)C(=O)N[C@@H](Cc1ccncc1)C(=O)N[C@@H](CCCCNC(=O)COCCOCCNC(=O)COCCOCCNC(=O)CC[C@H](NC(=O)CCCCCCCCCCCCCCCCCCC(=O)O)C(=O)O)C(=O)N[C@@H](CC(C)C)C(=O)N[C@@H](CCC(=O)O)C(=O)N[C@@H](CCC(N)=O)C(=O)NCC(=O)N1CCC[C@H]1C(=O)N[C@@H](CO)C(=O)N[C@@H](CO)C(=O)NCC(=O)N[C@@H](C)C(=O)N1CCC[C@H]1C(=O)N1CCC[C@H]1C(=O)N1CCC[C@H]1C(=O)N[C@@H](CO)C(N)=O)C(C)C)[C@@H](C)CC [Example 114] (H-Y[Aib]EGT[αMePhe(2-F)]ISDYSIALDKIHQ[Aib]DFVE[4Pal]K([AEEA-AEEA-γGlu-C20 diacid])LEQGPSSGAPPPS-NH2) | 121 | > 971000
2 | CC[C@H](C)[C@H](NC(=O)[C@H](CCCN)NC(=O)[C@H](CC(=O)O)NC(=O)[C@H](CC(C)C)NC(=O)[C@](C)(CC(C)C)NC(=O)[C@@H](NC(=O)[C@H](CO)NC(=O)[C@H](Cc1ccc(O)cc1)NC(=O)[C@H](CC(=O)O)NC(=O)[C@H](CO)NC(=O)[C@@H](NC(=O)[C@H](Cc1ccccc1)NC(=O)[C@@H](NC(=O)CNC(=O)[C@H](CCC(=O)O)NC(=O)C(C)(C)NC(=O)[C@@H](N)Cc1ccc(O)cc1)[C@@H](C)O)[C@@H](C)CC)[C@@H](C)CC)C(=O)N[C@@H](Cc1c[nH]cn1)C(=O)N[C@@H](CCC(N)=O)C(=O)NC(C)(C)C(=O)N[C@@H](CC(=O)O)C(=O)N[C@@H](Cc1ccccc1)C(=O)N[C@H](C(=O)N[C@@H](CCC(=O)O)C(=O)N[C@@H](Cc1ccncc1)C(=O)N[C@@H](CCCCNC(=O)COCCOCCNC(=O)COCCOCCNC(=O)CC[C@H](NC(=O)CCCCCCCCCCCCCCCCC(=O)O)C(=O)O)C(=O)N[C@@H](CC(C)C)C(=O)N[C@@H](CCC(=O)O)C(=O)NCC(=O)NCC(=O)N1CCC[C@H]1C(=O)N[C@@H](CO)C(=O)N[C@@H](CO)C(=O)NCC(=O)N[C@@H](C)C(=O)N1CCC[C@H]1C(=O)N1CCC[C@H]1C(=O)N1CCC[C@H]1C(=O)N[C@@H](CO)C(N)=O)C(C)C [Example 111] (H-Y[Aib]EGTFISDYSI[αMeL]LD[Orn]IHQ[Aib]DFVE[4Pal]K([AEEA-AEEA-γGlu-C18 diacid])LEGGPSSGAPPPS-NH2) | 87.1 | > 960000
3 | CC[C@H](C)[C@H](NC(=O)[C@H](CO)NC(=O)[C@H](Cc1ccc(O)cc1)NC(=O)[C@H](CC(=O)O)NC(=O)[C@H](CO)NC(=O)[C@@H](NC(=O)[C@](C)(Cc1ccccc1F)NC(=O)[C@@H](NC(=O)CNC(=O)[C@H](CCC(=O)O)NC(=O)C(C)(C)NC(=O)[C@@H](N)Cc1ccc(O)cc1)[C@@H](C)O)[C@@H](C)CC)C(=O)N[C@@H](C)C(=O)N[C@@H](CC(C)C)C(=O)N[C@@H](CC(=O)O)C(=O)N[C@@H](CCCCN)C(=O)N[C@H](C(=O)N[C@@H](Cc1c[nH]cn1)C(=O)N[C@@H](CCC(N)=O)C(=O)NC(C)(C)C(=O)N[C@@H](CCC(=O)O)C(=O)N[C@@H](Cc1ccccc1)C(=O)N[C@H](C(=O)N[C@@H](CC(N)=O)C(=O)N[C@@H](Cc1ccc(O)cc1)C(=O)N[C@@H](CCCCNC(=O)COCCOCCNC(=O)COCCOCCNC(=O)CC[C@H](NC(=O)CCCCCCCCCCCCCCCCC(=O)O)C(=O)O)C(=O)N[C@@H](CC(C)C)C(=O)N[C@@H](C)C(=O)NCC(=O)NCC(=O)N1CCC[C@H]1C(=O)N[C@@H](CO)C(=O)N[C@@H](CO)C(=O)NCC(=O)N[C@@H](C)C(=O)N1CCC[C@H]1C(=O)N1CCC[C@H]1C(=O)N1CCC[C@H]1C(=O)N[C@@H](CO)C(N)=O)C(C)C)[C@@H](C)CC [Example 94] (H-Y[Aib]EGT[αMePhe(2-F)]ISDYSIALDKIHQ[Aib]EFVNYK([AEEA-AEEA-γGlu-C18 diacid])LAGGPSSGAPPPS-NH2) | 31 | 114000
4 | CC[C@H](C)[C@H](NC(=O)[C@H](CCCCN)NC(=O)[C@H](CC(=O)O)NC(=O)[C@H](CC(C)C)NC(=O)[C@](C)(CC(C)C)NC(=O)[C@@H](NC(=O)[C@H](CO)NC(=O)[C@H](Cc1ccc(O)cc1)NC(=O)[C@H](CC(=O)O)NC(=O)[C@H](CO)NC(=O)[C@@H](NC(=O)[C@H](Cc1ccccc1)NC(=O)[C@@H](NC(=O)CNC(=O)[C@H](CCC(=O)O)NC(=O)C(C)(C)NC(=O)[C@@H](N)Cc1ccc(O)cc1)[C@@H](C)O)[C@@H](C)CC)[C@@H](C)CC)C(=O)N[C@@H](Cc1c[nH]cn1)C(=O)N[C@@H](CCC(N)=O)C(=O)NC(C)(C)C(=O)N[C@@H](CCC(=O)O)C(=O)N[C@@H](Cc1ccccc1)C(=O)N[C@H](C(=O)N[C@@H](CCC(=O)O)C(=O)N[C@@H](Cc1ccncc1)C(=O)N[C@@H](CCCCNC(=O)COCCOCCNC(=O)COCCOCCNC(=O)CC[C@H](NC(=O)CCCCCCCCCCCCCCCCCCC(=O)O)C(=O)O)C(=O)N[C@@H](CC(C)C)C(=O)N[C@@H](CCC(=O)O)C(=O)NCC(=O)NCC(=O)N1CCC[C@H]1C(=O)N[C@@H](CO)C(=O)N[C@@H](CO)C(=O)NCC(=O)N[C@@H](C)C(=O)N1CCC[C@H]1C(=O)N1CCC[C@H]1C(=O)N1CCC[C@H]1C(=O)N[C@@H](CO)C(N)=O)C(C)C [Example 100] (H-Y[Aib]EGTFISDYSI[αMeL]LDKIHQ[Aib]EFVE[4Pal]K([AEEA-AEEA-γGlu-C20 diacid])LEGGPSSGAPPPS-NH2) | 67.4 | 572000
5 | CC[C@H](C)[C@H](NC(=O)[C@H](CCCN)NC(=O)[C@H](CC(=O)O)NC(=O)[C@H](CC(C)C)NC(=O)[C@](C)(CC(C)C)NC(=O)[C@@H](NC(=O)[C@H](CO)NC(=O)[C@H](Cc1ccc(O)cc1)NC(=O)[C@H](CC(=O)O)NC(=O)[C@H](CO)NC(=O)[C@@H](NC(=O)[C@H](Cc1ccccc1)NC(=O)[C@@H](NC(=O)CNC(=O)[C@H](CCC(=O)O)NC(=O)C(C)(C)NC(=O)[C@@H](N)Cc1ccc(O)cc1)[C@@H](C)O)[C@@H](C)CC)[C@@H](C)CC)C(=O)N[C@@H](Cc1c[nH]cn1)C(=O)N[C@@H](CCC(N)=O)C(=O)NC(C)(C)C(=O)N[C@@H](CCC(=O)O)C(=O)N[C@@H](Cc1ccccc1)C(=O)N[C@H](C(=O)N[C@@H](CCC(=O)O)C(=O)N[C@@H](Cc1ccc(O)cc1)C(=O)N[C@@H](CCCCNC(=O)COCCOCCNC(=O)COCCOCCNC(=O)CC[C@H](NC(=O)CCCCCCCCCCCCCCCCCCC(=O)O)C(=O)O)C(=O)N[C@@H](CC(C)C)C(=O)N[C@@H](CCC(=O)O)C(=O)N[C@@H](C)C(=O)NCC(=O)N1CCC[C@H]1C(=O)N[C@@H](CO)C(=O)N[C@@H](CO)C(=O)NCC(=O)N[C@@H](C)C(=O)N1CCC[C@H]1C(=O)N1CCC[C@H]1C(=O)N1CCC[C@H]1C(=O)N[C@@H](CO)C(N)=O)C(C)C [Example 104] (H-Y[Aib]EGTFISDYSI[αMeL]LD[Orn]IHQ[Aib]EFVEYK([AEEA-AEEA-γGlu-C20 diacid])LEAGPSSGAPPPS-NH2) | 134 | > 960000
